The source made the active and inactive calls. No cut-off for these calls is given here.
What was measured:
Assay type in all cases: functional
[1] = tested on: Clostridium perfringens; experiment: Antimicrobial activity against Clostridium perfringens LFM1 assessed as susceptibility breakpoint by DIN-standardized microdilution method
[2] = tested on: Clostridium perfringens; experiment: Antimicrobial activity against Clostridium perfringens LFM1 assessed as susceptibility breakpoint by DANMAP method
[3] = tested on: Escherichia coli; experiment: Antimicrobial activity against flo gene positive Escherichia coli
[4] = tested on: Clostridium perfringens; experiment: Antimicrobial activity against Clostridium perfringens LFM1 assessed as susceptibility breakpoint by EUCAST method

Row | Structure (SMILES) | Activity [1] | Activity [2] | MIC [3] [µg/mL] | Activity [4] | Activity ([4]; record 2)
1 | CCC[C@@H]1C[C@@H](C(=O)N[C@@H]([C@H]2O[C@H](SC)[C@H](O)[C@@H](O)[C@H]2O)[C@H](C)Cl)N(C)C1 | inactive | – | – | – | –
2 | CC[C@H]1OC(=O)[C@H](C)[C@@H](O[C@H]2C[C@@](C)(OC)[C@@H](O)[C@H](C)O2)[C@H](C)[C@@H](O[C@@H]2O[C@H](C)C[C@H](N(C)C)[C@H]2O)[C@](C)(O)C[C@@H](C)C(=O)[C@H](C)[C@@H](O)[C@]1(C)O | inactive | – | – | – | –
3 | O=C(N[C@H](CO)[C@H](O)c1ccc([N+](=O)[O-])cc1)C(Cl)Cl | – | inactive | – | – | –
4 | CS(=O)(=O)c1ccc([C@@H](O)[C@@H](CF)NC(=O)C(Cl)Cl)cc1 [FLORFENICOL] | – | inactive | > 32 | – | –
5 | CC(=O)NC[C@H]1CN(c2ccc(N3CCOCC3)c(F)c2)C(=O)O1 [LINEZOLID] | <=2 mg/L | <=2 mg/L | > 64 | inactive | <=2 mg/L
